Results as given in US3939263A, “Methods of combatting insects and acarina using oxygenated derivatives of S-(tert-bulythio)methyl O,O-diethyl phosphorodithioate and phosphorothioate” (priority 1974, dated 1976).

What was measured:
Housefly = Housefly feeding test in sugar water; format: in vivo, Musca domestica Linneaus; settings: Musca domestica; 5 ppm in sugar water; counts after 1 day and 3 days; read-out: % Kill, Housefly
Method: Housefly -- Musca domestica Linneaus
Groups of 25 adult female houseflies three to 5 days old are lightly anesthetized with CO2, placed in wide-mouthed pint mason jars, and covered with a screen cap. The test compound is a 100 ppm. 35/65% water/acetone solution. Two milliliters of this is pipetted into a 10-dram vial and diluted to 40 ml. with 10% sugar solution, giving a final concentration of 5 ppm. in sugar water. The mouth of the vial is covered with a single layer of cheesecloth, inverted and placed on the screen cap of the fly jar, so that the flies can feed on the solution through the screen. Mortality counts are made after 1 day and 3 days at 80°F., 50% r.h.

Cotton Boll Weevil [1] = assay: Soil Systemic Insecticide test on cotton, Cotton Boll Weevil; format: in vivo, Anthonomus grandis Boheman; settings: 48 h; 100 ppm in soil; cotton leaves after three weeks; 2 days; read-out: % Kill, Systemic Insecticide, Cotton Boll Weevil
Method: (§1) Soil Systemic Insecticide Tests
(§2) Corn and cotton seed (three seeds each) are planted in treated soil (containing about 100 ppm. of the compound). Thirty milliliters of treated soil are placed in a peat container 5 × 5 × 5.5 cm., and three seeds each of corn and cotton planted. The containers are filled with an additional 30 ml. of treated soil. The treatments are removed to the greenhouse maintained about 26°C. without supplementary light. Water is supplied as needed. After three weeks, foliage of the corn is clipped and placed in glass petri dishes (90 mm. × 10 mm.) with moist filter (9 cm. Whatman No. 1) paper and ten third-instar southern armyworm (Spodoptera eridania Cramer) larvae about 8 mm. long. The dishes are covered and placed in the holding room with constant light at 26.7°C. and 60% r.h. for 2 days, when mortality counts are made.
The cotyledonary leaves of the cotton are clipped after three weeks and placed in glass petri dishes (90 mm. × 10 mm.) with moist filter (9 cm. Whatman No. 1) paper and ten adult boll weevils (Anthonomus grandis Boheman). The dishes are covered, placed in the holding room with constant light at 26.7°C. and 60% r.h. for 2 days, when mortality counts are made.

Cotton Boll Weevil [2] = assay: Cotton Boll Weevil, treated cotton cotyledon, 2-day mortality; format: in vivo, Anthonomus grandis Boheman; settings: 48 h, 2 days, read-out: % Kill, Cotton Boll Weevil
Method: Cotton Boll Weevil -- Anthonomus grandis Boheman
A cotton plant with cotyledons expanded is dipped for 3 seconds with agitation in 35/65% aqueous acetone mixture containing 100 ppm. of test compound and set in the hood to dry. One cotyledon is removed from the plant and placed in a 4-inch petri dish containing a moist filter paper on the bottom and 10 adult weevils. After 2 days at 80°F., and 50% r.h., mortality counts are made, prodding each insect to distinguish dead ones from those "playing dead."

Tarnished Plant Bug = assay: Tarnished Plant Bug, treated cotton leaf, 2-day mortality; format: in vivo, Lygus Lineolaris (Palisot de Beauvois); settings: Lygus lineolaris, 48 h, 2 days, read-out: % Kill, Tarnished Plant Bug
Method: Tarnished Plant Bug -- Lygus Lineolaris (Palisot de Beauvois)
A cotton plant with two true leaves expanded is dipped for 3 seconds with agitation in a 35/65% water/acetone mixture containing 100 ppm. of test compound and set in the hood to dry. One leaf is removed and placed in an 8-ounce waxed cup containing a wet 2-inch dental wick and 10 adult tarnished plant bugs, and a clear plastic lid is snapped on. After 2 days at 80°F., 50% r.h., mortality counts are made.

[3] = system: Boophilus microplus ticks; assay: Tick larvae, simulated spray in pipette; format: in vivo; settings: Rhipicephalus microplus, 48 hours, read-out: % Kill, Ticks
Method: Ticks -- Boophilus microplus
In these tests, 20 larvae are enclosed in a pipette sealed at one end with a gauze material. A 10% acetone/water solution with the drug in it is then sucked through the pipette with a vacuum hose, thus simulating a spray system. The ticks are then held for 48 hours and mortality is determined.

[4] = Mammalian toxicity, LD50 in mice; format: in vivo, male albino mice of the CFI strain; settings: mouse, in vivo; male albino mice, corn oil, 0.5 ml./kg.
Method: For the tests reported in Table II, 20 male albino mice of the CFI strain, weighing approximately 18 grams to 20 grams are selected. The phosphates are readied for administration by preparing a solution or dispersion in corn oil (Mazola), the concentration of which is adjusted so that the total volume of the dose is 0.5 ml./kg. in every case. The initial solution is prepared by deciding upon the maximum dosage in mg./kg. to be administered and preparing 10 ml. of this solution of such a concentration that the desired dosage in mg./kg. is delivered when 0.5 ml. of the solution is administered for 20 grams of mouse body weight. Serial dilutions differing by a factor of two are then prepared for each lower dosage level. LD50 stands for the lethal dose in mg./kg. which kills 50% of the mice.

Southern Armyworm [5] = assay: Southern Armyworm, dipped lima bean leaf; format: in vivo, Spodoptera eridania (Cramer); settings: Spodoptera eridania, 48 h, 2 days, read-out: % Kill, Southern Armyworm
Method: Southern Armyworm -- Spodoptera eridania (Cramer)
A Sieva lima bean plant with just the primary leaves expanded to 3 to 4 inches is dipped for 3 seconds with agitation in a 35/65% water/acetone mixture containing 1000 ppm. of test compound and set in the hood to dry. Following this, one leaf is placed in a 4-inch petri dish which has a moist filter paper in the bottom and ten third-instar armyworm larvae about three-eighths inch long. The dish is covered and held at 80°F., and 50% r.h. After 2 days, mortality counts and estimates of the amount of feeding are made. Compounds showing partial kill and/or inhibition of feeding are held for an extra day for further observations.

Two-Spotted Spider Mite = assay: Two-Spotted Spider Mite, dipped infested lima bean plants; format: in vivo, Tetranychus urticae (Koch); settings: Tetranychus urticae, read-out: % Kill, Two-Spotted Spider Mite
Method: Two-Spotted Spider Mite -- Tetranychus urticae (Koch)
Sieva lima bean plants, with primary leaves 3 to 4 inches long, are infested with about 100 adult mites per leaf 4 hours before use in this test, in order to allow egg-laying before treatment. The infested plants are dipped for 3 seconds with agitation into a 35/65% water/acetone mixture containing 1000 ppm. of test compound and the plants set in the hood to dry. After 2 days at 80°F., and 50% r.h., the adult mite mortality is estimated on one leaf under a 10X stereoscopic microscope. The other leaf is left on the plant an additional 5 days and then examined at 10X power to estimate the kill of eggs and of newly hatched nymphs, giving a measure of ovicidal and residual action, respectively.

Southern Armyworm [6] = assay: Soil Systemic Insecticide test on corn, Southern Armyworm; format: in vivo, Spodoptera eridania Cramer; settings: Spodoptera eridania, 48 h; 100 ppm in soil; corn foliage after three weeks; 2 days; read-out: % Kill, Systemic Insecticide, Southern Armyworm
Method: as §1, §2

| SMILES | mortality at 5 ppm (Housefly) [%] | mortality at 100 ppm (Cotton Boll Weevil [1]) [%] | mortality at 100 ppm (Cotton Boll Weevil [2]) [%] | mortality at 100 ppm (Tarnished Plant Bug) [%] | mortality at 100 ppm ([3]; 100 ppm) [%] | LD50 [4] [mg/kg] | mortality at 100 ppm (Southern Armyworm [5]) [%] | mortality at 1000 ppm (Southern Armyworm [5]) [%] | mortality at 100 ppm (Two-Spotted Spider Mite) [%] | mortality at 1000 ppm (Two-Spotted Spider Mite) [%] | mortality at 100 ppm (Southern Armyworm [6]) [%] | mortality at 33 ppm [3] [%] |
| --- | --- | --- | --- | --- | --- | --- | --- | --- | --- | --- | --- | --- |
| CCOP(=O)(OCC)SC[S+]([O-])C(C)(C)C (stereo not drawn) [O,O-diethyl S-(tert-butylsulfinyl)methyl Phosphorothioate] | 100 | 100 | 90 | 100 | 100 | 1.1 | 100 | 100 | 100 | 100 | 100 | – |
| CCOP(=S)(OCC)SC[S+]([O-])C(C)(C)C (stereo not drawn) [O,O-diethyl S-(tert-butylsulfinyl)methyl phosphorodithioate, reference compound] | 100 | 100 | 100 | 100 | – | 3.4 | 70 | 100 | 100 | 100 | 100 | 0 |
| CCOP(=S)(OCC)SCS(=O)(=O)C(C)(C)C [O,O-diethyl S-(tert-butylsulfonyl)methyl Phosphorodithioate] | 100 | 90 | 90 | 100 | – | 14 | 100 | 100 | 100 | 100 | 0 | – |
| CCOP(=O)(OCC)SCS(=O)(=O)C(C)(C)C [O,O-diethyl S-(tert-butylsulfonyl)methyl Phosphorothioate] | 100 | 100 | 90 | 100 | – | 3.4 | 100 | 100 | 100 | 100 | 100 | 0 |
